Experimental data published in PMC8998618, “A Pharmacokinetic and Metabolism Study of the TRPC6 Inhibitor SH045 in Mice by LC-MS/MS” (International Journal of Molecular Sciences, 2022).

Key:
[1] = NADPH-dependent microsomal conversion, Michaelis-Menten kinetics (HLM); type: in vitro ADME, human; settings: HLM 0.5 mg/mL protein, SH045 0.5 to 100 µM, Lineweaver-Burk
Method: For determination of vmax and Michaelis-Menten constant Km of the NADPH-dependent microsomal depletion of SH045, incubations in MLM and HLM were performed. Testosterone instead of SH045 was used as positive control (Supplementary Materials SM6).
Negative controls were obtained by omission of respective components. The overall velocity (v) of degradation was calculated from altered SH045 concentration (∆c) obtained from reduction peak area ratio of SH045 as: v = ∆c/incubation time × concentration of enzyme (nmol/min × mg). Mean maximum rate vmax and Km were calculated using Lineweaver-Burk transformation. […]
The tissue binding of SH045 was analyzed exemplarily in lung, liver and kidney homogenate using ultrafiltration [5]. […] 20 µL of the mixture and the filtrate were analyzed for SH045. […]
Testosterone (10 µM in ACN/DPBS 2/3, v/v) instead of SH045 was used as positive control and analyzed by an appropriate HPLC method with UV detection.
Negative controls contained either no NADPH, no MLM or HLM or none of them. The overall velocity (v) of degradation was calculated from altered SH045 concentration (∆c) obtained from reduction peak area ratio of SH045 as: v = ∆c / incubation time × concentration of enzyme × volume (nmol/ min × mg). Mean maximum rate vmax and Michaelis-Menten constant Km were calculated using Lineweaver-Burk transformation. […]

TRPC6 = system: TRPC6; set-up: method as in PMID 29522264; settings: in vitro; cited from earlier work

SMILES: C=C[C@@](C)(O)CC[C@H]1C(=C)C[C@H](OC(=O)NC)[C@H]2C(C)(C)CCC[C@]12C [SH045, (1S,4S,4aR,8aS)-4-((S)-3-Hydroxy-3-methylpent-4-en-1-yl)-4a,8,8-trimethyl-3-methylenedecahydronaphthalen-1-yl methylcarbamate]
- vmax [1]: 0.8 ± 0.1 nmol/min/mg
- Km at 10 min ([1]; human, human liver microsomes): 4.1 ± 0.8 µM
- IC50 (TRPC6): 5.8 nM
